Source: patent US20130310256A1, “HERBICIDAL COMPOSITIONS COMPRISING 4-AMINO-3-CHLORO-5-FLUORO-6-(4-CHLORO-2-FLUORO-3-METHOXYPHENYL) PYRIDINE-2-CARBOXYLIC ACID OR A DERIVATIVE THEREOF AND VLCFA AND LIPID SYNTHESIS INHIBITING HERBICIDES” (DOW AGROSCIENCES LLC, priority 2008, published 2013)

Tested on: ECHCG
Experiment: Example II: in-water applied weed control, transplanted paddy rice, greenhouse
Type: in vivo, Echinochloa crus-galli (L.) Beauv. (barnyardgrass)
Procedure: Weed seeds or nutlets of the desired test plant species were planted in puddled soil (mud) prepared by mixing a shredded, non-sterilized mineral soil (50.5 percent silt, 25.5 percent clay, and 24 percent sand, with a pH of about 7.6 and an organic matter content of about 2.9 percent) and water at a 1:1 volumetric ratio. The prepared mud was dispensed in 365 mL aliquots into 16-ounce (oz.) non-perforated plastic pots with a surface area of 86.59 square centimeters (cm^2) leaving a headspace of 3 centimeters (cm) in each pot. Mud was allowed to dry overnight prior to planting or transplanting. Rice seeds were planted in Sun Gro MetroMix® 306 planting mixture, which typically has a pH of 6.0 to 6.8 and an organic matter content of about 30 percent, in plastic plug trays. Seedlings at the second or third leaf stage of growth were transplanted into 840 mL of mud contained in 32-oz. non-perforated plastic pots with a surface area of 86.59 cm^2 4 days prior to herbicide application. The paddy was created by filling the headspace of the pots with 2.5 to 3 cm of water. When required to ensure good germination and healthy plants, a fungicide treatment and/or other chemical or physical treatment was applied. The plants were grown for 4-22 days in a greenhouse with an approximate 14 hr photoperiod which was maintained at about 29′C during the day and 26° C. during the night. Nutrients were added as Osmocote® (19:6:12, N:P:K+ minor nutrients) at 2 g per 16-oz. pot and 4 g per 32-oz. pot. Water was added on a regular basis to maintain the paddy flood, and supplemental lighting was provided with overhead metal halide 1000-Watt lamps as necessary. The plants were employed for testing when they reached the first through fourth true leaf stage.
Treatments consisted of the acid or esters of 4-amino-3-chloro-5-fluoro-6-(4-chloro-2-fluoro-3-methoxy-phenyl)pyridine-2-carboxylic acid (compound A) each formulated as an SC (suspension concentrate) and various herbicidal components alone and in combination. Forms of compound A were applied on an acid equivalent basis.
The herbicidal components were applied on an active ingredient basis and included very long chain fatty acid (VLCFA) synthesis-inhibiting and fatty acid/lipid synthesis-inhibiting herbicides acetochlor (technical grade material), acetochlor+dichlormid formulateded as Topnotch®, pretilachlor (technical grade material), butachlor formulated as Butachlor EC, fentrazamide formulated as Fentrazamide EC, thiobencarb formulated as Bolero® 8EC, cafenstrole formulated as Himeadow® WP or Lapost® Flowable, benfuresate formulated as Full Shot®, anilofos (technical grade material), mefenacet (technical grade material), molinate (technical grade material), and thenylchlor (technical grade material).
Treatment requirements for each compound or herbicidal component were calculated based upon the rates being tested, the concentration of active ingredient or acid equivalent in the formulation, an application volume of 2 mL per component per pot, and an application area of 86.59 cm^2 per pot.
For formulated compounds, a measured amount was placed in an individual 100 or 200 mL glass vial and was dissolved in a volume of 1.25% (v/v) Agri-Dex® crop oil concentrate to obtain application solutions.
For technical grade compounds, a weighed amount was placed in an individual 100 to 200 mL glass vial and was dissolved in a volume of acetone to obtain concentrated stock solutions. […] The concentrated stock solutions obtained were diluted with an equivalent volume of an aqueous mixture containing 2.5% (v/v) crop oil concentrate so that the final application solutions contained 1.25% (v/v) crop oil concentrate.
Applications were made by injecting with a pipetter appropriate amounts of the application solutions, individually and sequentially, into the aqueous layer of the paddy. Control plants were treated in the same manner with the solvent blank. […]

CCS(=O)(=O)Oc1ccc2c(c1)C(C)(C)CO2 [Benfuresate, 2,3-dihydro-3,3-dimethyl-5-benzofuranyl ethanesulfonate]
Visual Weed Control ECHCG Obs (75 gai/ha (Full Slot), 22 DAA): 0% | Visual Weed Control ECHCG Obs (150 gai/ha (Full Slot), 22 DAA): 0%

CCN(CC)C(=O)n1cnc(S(=O)(=O)c2c(C)cc(C)cc2C)n1 [Cafenstrole, N,N-diethyl-3-[(2,4,6-trimethylphenyl)sulfonyl]-1H-1,2,4-triazole-1-carboxamide]
Visual Weed Control ECHCG Obs (52.5 gai/ha (Himeadow WP), 21 DAA): 20% | Visual Weed Control ECHCG Obs (105 gai/ha (Himeadow WP), 21 DAA): 25%

COc1c(Cl)ccc(-c2nc(C(=O)O)c(Cl)c(N)c2F)c1F [Compound A Acid, 4-amino-3-chloro-6-(4-chloro-2-fluoro-3-methoxyphenyl)-5-fluoropyridine-2-carboxylic acid]
Visual Weed Control (%) - 21 DAA ECHCG Obs (8.75 gae/ha): 0% | Visual Weed Control (%) - 22 DAA ECHCG Obs (8.75 gae/ha): 0% | Visual Weed Control ECHCG Obs (8.75 gae/ha, 21 DAA): 0% | Visual Weed Control (%) - 21 DAA ECHCG Obs (17.5 gae/ha): 0% | Visual Weed Control (%) - 22 DAA ECHCG Obs (17.5 gae/ha): 15% | Visual Weed Control ECHCG Obs (17.5 gae/ha, 21 DAA): 0% | Visual Weed Control (%) - 21 DAA ECHCG Obs (35 gae/ha): 20% | Visual Weed Control (%) - 22 DAA ECHCG Obs (35 gae/ha): 15% | Visual Weed Control ECHCG Obs (35 gae/ha, 21 DAA): 20% | Visual Weed Control ECHCG Obs (42.4 gae/ha, 22 DAA): 30%

COc1c(Cl)ccc(-c2nc(C(=O)OCc3ccccc3)c(Cl)c(N)c2F)c1F [Compound A Benzyl Ester, benzyl ester of 4-amino-3-chloro-5-fluoro-6-(4-chloro-2-fluoro-3-methoxy-phenyl)pyridine-2-carboxylic acid]
Visual Weed Control (%) - 21 DAA ECHCG Obs (4.38 gae/ha): 15% | Visual Weed Control (%) - 22 DAA ECHCG Obs (4.38 gae/ha): 10% | Visual Weed Control ECHCG Obs (4.38 gae/ha, 21 DAA): 15% | Visual Weed Control ECHCG Obs (8 gae/ha, 19 DAA): 30% | Visual Weed Control (%) - 21 DAA ECHCG Obs (8.75 gae/ha): 20% | Visual Weed Control (%) - 22 DAA ECHCG Obs (8.75 gae/ha): 25% | Visual Weed Control ECHCG Obs (8.75 gae/ha, 21 DAA): 20% | Visual Weed Control ECHCG Obs (16 gae/ha, 19 DAA): 20% | Visual Weed Control (%) - 21 DAA ECHCG Obs (17.5 gae/ha): 75% | Visual Weed Control (%) - 22 DAA ECHCG Obs (17.5 gae/ha): 60% | Visual Weed Control ECHCG Obs (17.5 gae/ha, 21 DAA): 75% | Visual Weed Control ECHCG Obs (32 gae/ha, 19 DAA): 40%
